Experimental findings from patent US4598070A, “Tripamide and cyclodextrin inclusion compound” (Eisai Co., Ltd., priority 1983, dated 1986) are described below.

The nature of this data set: Solubility of tripamide in water, Liquid I or Liquid II of the Japanese Pharmacopeia (37° C., 5 days, absorbancy method). To be noted: for solubility at 120 h: 37° C., 5 days, as tripamide, Experiment 2. The class given is physicochemical. The method, then:
The inclusion compound prepared in accordance with the process described in Example 1 was used as a sample. This sample was prepared by the reaction of 1 mole of tripamide and 3 moles of β-cyclodextrin. For purpose of comparison, tripamide per se was used.
The sample was accurately weighed 100 mg as tripamide and mixed with water, Liquid I of the Japanese Pharmacopeia or Liquid II of the Japanese Pharmacopeia. The mixture was stirred at 37° C. in a warm bath for 5 days. Tripamide, dissolved in the solution, was measured by the absorbancy method.
That is, each of the tripamide solutions in water, Liquid I of the Japanese Pharmacopeia and Liquid II of the Japanese Pharmacopeia was filtered using a millipore filter of 1.2 μm and 1 ml each of the solutions after filtration was taken out. In the case of the solution using Liquid I of the Japanese Pharmacopeia, the solution was further diluted with Liquid I of the Japanese Pharmacopeia to make a 100 ml solution and 5 ml taken out of the resulting solution was further diluted to 50 ml with a 0.1N hydrochloric acid-methanol solution followed by measurement at 244 nm. In the case of each of the solutions in water and Liquid II of the Japanese Pharmacopeia, the solution was diluted to 100 ml with Liquid II of the Japanese Pharmacopeia followed by measurement at 233 nm. […]

Values after ≈ are worked out from the molar mass of the structure shown. Where two headings read alike, the source gives them in different places.

As to `NS(=O)(=O)c1cc(C(=O)NN2C[C@@H]3[C@@H]4CC[C@@H](C4)[C@@H]3C2)ccc1Cl` [Tripamide, N-(4-A2a-endo-tricyclo[5.2.1.0^2.6. ]decan-4-yl)-4-chloro-3-sulfamoylbenzamide], the solubility at 120 h reads like this: (Water, read-out: Solubility (mg/ml), Water) 0.0094 mg/mL (≈ 25.4 µM); (jp liquid i, pH 1.2, Liquid I of the Japanese Pharmacopeia, pH about 1.2, read-out: Solubility (mg/ml), Japanese Pharmacopeia Liquid I) 0.349 mg/mL (≈ 944 µM); (jp liquid ii, pH 7.5, Liquid II of the Japanese Pharmacopeia, pH about 7.5, read-out: Solubility (mg/ml), Japanese Pharmacopeia Liquid II) 0.0144 mg/mL (≈ 38.9 µM). For the same compound, where the note is “water, Liquid I and Liquid II of the Japanese Pharmacopoeia, sample for comparison”, the “solubility in water, Liquid I and Liquid II (in words)” value is “low”. The “solubility in water (in words)” value (water, background statement) was “soluble in water only with extreme difficulty”.
